Source: publication PMC9775191, “A Subset Screen of the Compounds Australia Scaffold Library Identifies 7-Acylaminodibenzoxazepinones as Potent and Selective Hits for Anti-Giardia Drug Discovery” (Biomedicines, 2022)

The compounds below were run on G. duodenalis BRIS/91/HEPU/1279 (assay: Giardia dose response assay, assemblage B). Conditions: BRIS/91/HEPU/1279; 48 h; mean ± SD; read-out: IC50 Giardia (48 h).
Format: cell-based, Giardia duodenalis
Method: In these assays, compounds were serially diluted (8–12-point doubling dilutions in technical duplicate) in DMSO control media, with all test wells inoculated with parasites (1.5 × 10^4 parasites for BRIS/91/HEPU/1279 and BRIS/91/HEPU/1279m1, or 3 × 10^3 parasites for BRIS/87/HEPU/713). […] All plates were sealed in culture chambers and gassed with 3% O2, 5% CO2 in N2 and incubated at 37 °C for 48 h, with parasites imaged and enumerated at 24 and 48 h. Growth inhibition was calculated as a percentage relative to vehicle controls minus any background as described above and IC50 values were determined using log-linear interpolation as previously described. […] Statistical comparison of IC50 values when required were performed using Student’s t-test.

IC50 [µM] | SMILES
> 8.6 | COc1ccc(C(=O)Nc2ccc3c(c2)Oc2ccccc2C(=O)N3C)cc1OC [SN00797646]

Same assay, conditions: Giardia duodenalis, 48 h, BRIS/91/HEPU/1279; 48 h; mean ± SD; read-out: IC50 Giardia (48 h)

IC50 [µM] | SMILES
> 10 | Cc1ccc(NC(=O)c2oc3ccccc3c2NC(=O)c2ccccc2)cc1 [SN00785329]
> 10 | COc1ccc(C(=O)Nc2ccc3c(c2)Oc2ccccc2C(=O)N3C)c(OC)c1 [SN00797635]
> 10 | Cc1ccc(N2CC(C(=O)Nc3ccc4c(c3)Oc3ccccc3C(=O)N4C)CC2=O)cc1C (centres unmarked) [SN00797636]
5 | COc1cc(OC)cc(C(=O)Nc2ccc3c(c2)Oc2ccccc2C(=O)N3C)c1 [SN00797637]
> 10 | CN1C(=O)c2ccccc2Oc2cc(NC(=O)CNC(=O)c3ccco3)ccc21 [SN00797638]
> 10 | Cc1cccc(C(=O)Nc2ccc3c(c2)Oc2ccccc2C(=O)N3C)c1 [SN00797639]
> 10 | CN1C(=O)c2ccccc2Oc2cc(NC(=O)COc3ccc(Cl)cc3)ccc21 [SN00797641]
> 10 | CN1C(=O)c2ccccc2Oc2cc(NC(=O)C3(c4ccccc4)CC3)ccc21 [SN00797642]
> 10 | CN1C(=O)c2ccccc2Oc2cc(NC(=O)c3ccoc3)ccc21 [SN00797644]
> 10 | CN1C(=O)c2ccccc2Oc2cc(NC(=O)c3cccc(Br)c3)ccc21 [SN00797645]
8.6 | COc1ccc(C(=O)Nc2ccc3c(c2)Oc2ccccc2C(=O)N3C)cc1OC [SN00797646]
> 10 | CN1C(=O)c2ccccc2Oc2cc(NC(=O)c3ccccc3)ccc21 [SN00797647]

Each compound was assayed on G. duodenalis BRIS/91/HEPU/1279 (assay: Primary Giardia screen at 10 µM (live-cell imaging, automated counting)). Conditions: 24 h.
Format: cell-based, Giardia duodenalis
Method in brief: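 Percent growth versus 0.2% DMSO vehicle, background-corrected with media-only wells, is reported at 24 and 48 h from automated live-cell counts. Testing used 10 μM final in a 3% O2 atmosphere, with plate quality checked by Z' factor.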

SMILES | Average % Inhibition 24h [%]
Cc1sc(C(=O)N2CCCC2)c2ncnc(NCc3cccc(Cl)c3)c12 [SN00803183] | 15.6

Same assay, conditions: 24 h, first singlicate assay

SMILES | % Inhibition n=1 24h [%]
Cc1sc(C(=O)N2CCCC2)c2ncnc(NCc3cccc(Cl)c3)c12 [SN00803183] | 29.7

Same assay, conditions: 24 h, re-assessment

SMILES | % Inhibition n=2 24h [%]
Cc1sc(C(=O)N2CCCC2)c2ncnc(NCc3cccc(Cl)c3)c12 [SN00803183] | 1.5

Same assay, conditions: 48 h

SMILES | Average % Inhibition 48h [%]
Cc1sc(C(=O)N2CCCC2)c2ncnc(NCc3cccc(Cl)c3)c12 [SN00803183] | 27.6

Same assay, conditions: 48 h, first singlicate assay

SMILES | % Inhibition n=1 48h [%]
COCCN1CCC(N2CCCN(C(=O)NCCc3ccccc3)CC2)C1=O (centres unmarked) [SN00802413] | 1.7
CCOc1ccccc1CNC(=O)c1nc(C(C)C)oc1C [SN00802425] | 24.0
Cc1oc(C2CCC2)nc1C(=O)NC(C)c1ccccn1 (centres unmarked) [SN00802442] | 17.0
COc1ccc(-c2ccnc3c(C(=O)NCc4ccc5c(c4)OCO5)cnn23)cc1OC [SN00802455] | 16.8
CCN(CC)CCCC(C)NC(=O)c1cc(-c2ccco2)on1 (centres unmarked) [SN00802522] | 3.7
COC(=O)C(C)n1cnc2c(nnn2Cc2ccc(C)cc2)c1=O (centres unmarked) [SN00802538] | 3.2
COc1cccc(-c2noc(C3CCCCN3C(=O)Nc3ccc(Cl)cc3Cl)n2)c1 (centres unmarked) [SN00802548] | 5.7
COC(=O)C(C)n1cnc2c(nnn2Cc2ccccc2F)c1=O (centres unmarked) [SN00802558] | 11.4
Cc1ccccc1C(=O)N[C@@H]1CCCC[C@H]1NC(=O)C1CCCN(C(=O)c2ccc(Cl)cc2)C1 (some centres unmarked) [SN00802559] | 3.9
O=C(Cn1cnc2c(nnn2Cc2ccc(Cl)cc2)c1=O)NC1CCCC1 [SN00802568] | 16.4
CCCN(C)C(=O)Cn1c(=O)n(-c2ccc(F)cc2)c(=O)c2ccccc21 [SN00802614] | 32.9
O=C(c1ccc(F)cc1)N1CCc2[nH]nc(C(=O)N3CCN(c4ccc(F)cc4)CC3)c2C1 [SN00802630] | 0.9
CCn1nc(C(=O)NCc2ccccc2F)cc1-c1cc(C)sc1C [SN00802641] | 9.7
Cc1ccccc1-n1nc(C(=O)N(C)Cc2ccco2)nc1CCc1ccccc1 [SN00802642] | 5.4
CCOC(=O)CC(=O)Nc1ccc(-c2onc3c2CCc2cc(OC)ccc2-3)cc1 [SN00802675] | 5.3
O=c1c2c(ncn2Cc2ccc(F)cc2)n(-c2ccccc2)c(=O)n1C1CCCC1 [SN00802718] | 6.1
Cc1cccc2c1NC1(CCN(S(=O)(=O)c3ccc(C(C)(C)C)cc3)CC1)NC2=O [SN00802737] | 13.3
COc1ccc(-n2nc3c(c2NC(=O)c2ccc([N+](=O)[O-])cc2)CS(=O)(=O)C3)cc1 [SN00802781] | 12.4
CCn1nc(C(=O)NCCOc2ccccc2)cc1-c1cc(C)sc1C [SN00802783] | 0.0
Cc1ccc(-n2nc3c(c2NC(=O)COc2ccccc2)CS(=O)(=O)C3)c(C)c1 [SN00802785] | 16.6
CC(C)(C)c1cc2nc(-c3ccccc3)cc(C(=O)NC3CCCCNC3=O)n2n1 (centres unmarked) [SN00802787] | 0.0
CCN(CC)C(=O)c1cc(-c2cccs2)nc2cc(C)c(C)cc12 [SN00802800] | 16.9
COc1ccc(C2NC(=O)NC(C)=C2C(=O)c2ccccc2)cc1 (centres unmarked) [SN00802824] | 12.9
CCOC(=O)c1csc(-n2nc(CC(C)C)cc2C(F)(F)F)n1 [SN00802831] | 29.0

SMILES | % Inhibition n=1 48h [%]
Cc1ccc(Cn2ccc3nc(N4CCCCC4)ncc3c2=O)cc1 [SN00802904] | 15.1
CCn1cc(C(=O)Nc2ccccc2O)c(=O)c2cc(F)c(N3CCN(C(C)=O)CC3)cc21 [SN00802927] | 0.0
CCOc1ccc(S(=O)(=O)N(C)Cc2c(C)nn(C)c2C)cc1 [SN00802962] | 2.3
Cc1cc(C)cc(N2CCN(CCCNC(=O)c3nc(-c4ccncn4)no3)CC2)c1 [SN00802991] | 0.0
Cc1sc2ncn(CCN(C)C)c(=O)c2c1C(=O)Nc1ccc(S(N)(=O)=O)nc1 [SN00803001] | 26.5
COc1ccc(CNC(=O)N2CCC(c3ccn4ncc(C(=O)N5CCOCC5)c4c3)CC2)cc1 [SN00803088] | 0.7
COc1ccc(CC(=O)NC2CCN(c3nc4c(s3)c(C)nn4-c3cccc(C)c3)CC2)cc1 [SN00803147] | 1.5
Cc1nn(-c2ccc(F)cc2)c2nc(N3CCCN(C(=O)Cc4cccs4)CC3)sc12 [SN00803162] | 27.0
Cc1ccc(-n2nc(C)c3sc(N4CCCN(C(=O)c5ccc6c(c5)OCO6)CC4)nc32)cc1 [SN00803168] | 0.0
Cc1sc(C(=O)N2CCCC2)c2ncnc(NCc3cccc(Cl)c3)c12 [SN00803183] | 47.9
Cc1sc(C(=O)N2CCCC2)c2ncnc(NCc3ccc(F)c(Cl)c3)c12 [SN00803192] | 23.9
CCN1CCN(c2ccc3nnc(C(C)C)n3n2)CC1 [SN00803240] | 0.4
COc1ccccc1CNC(=O)CCN1C(=O)c2ccccc2C1=O [SN00807762] | 30.7
COc1ccc(N2C(=O)c3ccncc3C2=O)c(OC)c1 [SN00807767] | 28.6
CN(C)C(=O)N1CCN(Cc2nc3c(cnn3C)c(=O)[nH]2)CC1 [SN00807792] | 0.0
Cn1ncc2c(=O)[nH]c(CN3CCN(c4cnccn4)CC3)nc21 [SN00807797] | 0.0
Cc1ccc(C(=O)N2CCCN(S(C)(=O)=O)CC2)c(=O)[nH]1 [SN00807837] | 19.8
O=C(CSc1ccccc1)NCC1(N2CCCCC2)CCOCC1 [SN00807846] | 1.8
Cc1nnc2n1CCN(C(=O)c1cnc(-c3ccccc3)s1)C2 [SN00807889] | 22.7
Cc1ncc2c(n1)CN(C(C)c1nnc(-c3ccccc3)o1)CC2 (centres unmarked) [SN00807918] | 13.7
CCc1ncc2c(n1)CN(Cc1csc(-c3ncccn3)n1)CC2 [SN00807940] | 9.1
Cc1ncc2c(n1)CN(C(C)c1nc(-c3cccs3)no1)CC2 (centres unmarked) [SN00807951] | 13.5
Cc1oc(-c2ccco2)nc1CN1CCc2cnc(C(C)C)nc2C1 [SN00807954] | 0.1

Same assay, conditions: 48 h, re-assessment

SMILES | % Inhibition n=2 48h [%]
Cc1sc(C(=O)N2CCCC2)c2ncnc(NCc3cccc(Cl)c3)c12 [SN00803183] | 7.3
